These results are taken from patent US11040033B2 (Gilead Sciences, Inc., priority 2017, dated 2021).

The target of this experiment is T1, IDO1 (Homo sapiens, UniProt P14902).
T1 construct: HeLa cells were treated with a test compound in the presence of IFNγ, which induces IDO1 expression; endogenous in cells; host or cells: H1-HeLa cells (ATCC #CRL-1958), induced with IFNγ
T1 sequence (P14902 whole entry): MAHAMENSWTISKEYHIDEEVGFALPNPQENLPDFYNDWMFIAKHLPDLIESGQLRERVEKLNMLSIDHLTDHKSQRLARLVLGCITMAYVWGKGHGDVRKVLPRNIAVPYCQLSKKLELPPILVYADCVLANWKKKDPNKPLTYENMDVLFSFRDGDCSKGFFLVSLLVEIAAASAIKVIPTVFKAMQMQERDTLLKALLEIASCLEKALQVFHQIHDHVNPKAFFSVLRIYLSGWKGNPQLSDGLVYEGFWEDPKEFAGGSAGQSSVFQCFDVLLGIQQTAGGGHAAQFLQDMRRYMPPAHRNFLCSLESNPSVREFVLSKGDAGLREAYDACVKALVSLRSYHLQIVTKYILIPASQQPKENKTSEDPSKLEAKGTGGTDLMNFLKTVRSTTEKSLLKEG
The experiment is described as follows: Cell-based (HeLa) assay for measurement of IDO1 inhibition (kynurenine levels in supernatant after IFNγ induction). Particulars: H1-HeLa cells, IFNγ-induced IDO1, 48 hour incubation, kynurenine absorbance at 480 nm; geometric mean of a minimum of four determinations. As to the method: To measure IDO1 inhibition in tissue culture, HeLa cells were treated with a test compound in the presence of IFNγ, which induces IDO1 expression. Following incubation, cell supernatants were assayed for kynurenine levels, an indicator of IDO1 activity.
H1-HeLa cells (ATCC #CRL-1958) were seeded in 384-well plates (Greiner #82051-282) at a volume […] (Corning #15-018-CM) supplemented with 10% FBS (Corning #35-011-CV) and 1% P/S/G (Corning #30-009-CL) at a density of 1,250 cells/well and incubated overnight at 37° C., 5% CO2/100% humidity. The following day, the test compounds were added in DMSO (0.5% final) at various concentrations, and IDO1 was inducibly expressed by the addition of 50 uL/well of 50 ng/mL of INFγ(Peprotech #300-02) in cell plating media. As a positive control, 50 uL of the cell plating media without IFNγ was added to several wells. Following a 48 hour incubation, the plates were spun down at 1,200 RPM for 5 min at 10° C. 65 μL/well of the supernatant was then transferred to new 384-well plates (Thermo #262160) that contained 10 uL/well of 30% TCA (Sigma #T0699), and the plates were sealed and incubated at 60° C. for 30 min. The plates were then centrifuged for 15 min at 2,000 RPM at 10° C. 40 μL/well of the supernatant was transferred to new 384-well plates (Thermo #262160) and was reacted with 40 μL/well of 2% (w/v) p-dimethylaminobenzaldehyde (Sigma #156417) in glacial acetic acid (Sigma #A6283). The reaction was incubated at room temperature for 10 min and absorbance at 480 nm was read using a PerkinElmer Envision plate reader.
Data in Table 1 were normalized based on positive (−IFNγ) and negative (+IFNγ) controls and EC50 values were calculated from the fit of the dose-response curves to a four-parameter equation. All EC50 values represent geometric mean values of a minimum of four determinations. These assays generally produced results within 2-fold of the reported mean.
For orientation: EC50 means the concentration that produces a half-maximal response. A higher EC50 goes with a less potent agent. `Cc1ccc(-c2cccn3c(-c4ccccc4C(N)=O)nnc23)cc1C(=O)Nc1ccc(F)cc1` [Example 1, 5-(3-(2-carbamoylphenyl)-[1,2,4]triazolo[4,3-a]pyridin-8-yl)-N-(4-fluorophenyl)-2-methylbenzamide] displayed an EC50 of 5340 nM.
On to `Cc1nnc(-c2ncc3c(-c4ccc(C)c(C(=O)Nc5ccc(F)cc5)c4)cccn23)o1` [Example 2, N-(4-fluorophenyl)-2-methyl-5-(3-(5-methyl-1,3,4-oxadiazol-2-yl)imidazo[1,5-a]pyridin-8-yl)benzamide], for which the EC50 was found to be 3840 nM.
For the compound `Cc1ccc(-c2cccn3c(-c4cnnn4C)ncc23)cc1C(=O)Nc1ccc(F)cc1` [Example 3, N-(4-fluorophenyl)-2-methyl-5-(3-(1-methyl-1H-1,2,3-triazol-5-yl)imidazo[1,5-a]pyridin-8-yl)benzamide], the EC50 was 2190 nM.
Compound `Cc1ccc(-c2cccn3c(-c4cccnc4C)nnc23)cc1C(=O)Nc1ccc(F)cc1` [Example 4, N-(4-fluorophenyl)-2-methyl-5-(3-(2-methylpyridin-3-yl)-[1,2,4]triazolo[4,3-a]pyridin-8-yl)benzamide] had an EC50 of 2160 nM.
For `Cc1ccc(-c2cccn3c(-c4ccc(F)cc4C)nnc23)cc1C(=O)Nc1ccc(F)cc1` [Example 5, 5-(3-(4-fluoro-2-methylphenyl)-[1,2,4]triazolo[4,3-a]pyridin-8-yl)-N-(4-fluorophenyl)-2-methylbenzamide], the midpoint of the response, the EC50, lay at 1410 nM.
`NC(=O)c1ccnc(-c2ncc3c(-c4ccc(C(F)(F)F)c(C(=O)Nc5ccc(F)cc5)c4)cccn23)c1` [Example 6, 2-(8-(3-((4-fluorophenyl)carbamoyl)-4-(trifluoromethyl)phenyl)imidazo[1,5-a]pyridin-3-yl)isonicotinamide]: the EC50 was 1330 nM.
Next, `Cc1ccc(-c2cccn3c(-c4nnco4)ncc23)cc1C(=O)Nc1ccc(F)cc1` [Example 7]: 1220 nM; `Cn1nncc1-c1ncc2c(-c3ccc(C(F)(F)F)c(C(=O)Nc4ccc(F)cc4)c3)cccn12` [Example 8, N-(4-fluorophenyl)-5-(3-(1-methyl-1H-1,2,3-triazol-5-yl)imidazo[1,5-a]pyridin-8-yl)-2-(trifluoromethyl)benzamide]: 1200 nM; `Cc1ccc(-c2cccn3c(-c4ccccc4)nnc23)cc1C(=O)Nc1ccc(F)cc1` [Example 9, N-(4-fluorophenyl)-2-methyl-5-(3-phenyl-[1,2,4]triazolo[4,3-a]pyridin-8-yl)benzamide]: 809 nM.
As for `N#Cc1ccnc(-c2ncc3c(-c4ccc(C(F)(F)F)c(C(=O)Nc5ccc(F)cc5)c4)cccn23)c1` [Example 10, 5-(3-(4-cyanopyridin-2-yl)imidazo[1,5-a]pyridin-8-yl)-N-(4-fluorophenyl)-2-(trifluoromethyl)benzamide], the EC50 worked out at 712 nM.
For `Cc1ccc(-c2cccn3c(-c4cccnc4)nnc23)cc1C(=O)Nc1ccc(F)cc1` [Example 11, N-(4-fluorophenyl)-2-methyl-5-(3-(pyridin-3-yl)-[1,2,4]triazolo[4,3-a]pyridin-8-yl)benzamide], the EC50 was 683 nM.
The compound `Cc1ccc(-c2cccn3c(-c4ccccc4C)nnc23)cc1C(=O)Nc1ccc(F)cc1` [Example 12, N-(4-fluorophenyl)-2-methyl-5-(3-(o-tolyl)-[1,2,4]triazolo[4,3-a]pyridin-8-yl)benzamide] registered an EC50 of 403 nM.
Regarding `Cn1cnc(-c2ncc3c(-c4ccc(C(F)(F)F)c(C(=O)Nc5ccc(F)cc5)c4)cccn23)c1` [Example 13, N-(4-fluorophenyl)-5-(3-(1-methyl-1H-imidazol-4-yl)imidazo[1,5-a]pyridin-8-yl)-2-(trifluoromethyl)benzamide], the EC50 amounted to 365 nM.
Turning to `Cc1ccc(-c2cccn3c(-c4cn(C)cn4)ncc23)cc1C(=O)Nc1ccc(F)cc1` [Example 14, N-(4-fluorophenyl)-2-methyl-5-(3-(1-methyl-1H-imidazol-4-yl)imidazo[1,5-a]pyridin-8-yl)benzamide], the response was half-maximal at 322 nM (EC50).
The compound `N#Cc1cccnc1-c1ncc2c(-c3ccc(C(F)(F)F)c(C(=O)Nc4ccc(F)cc4)c3)cccn12` [Example 15, 5-(3-(3-cyanopyridin-2-yl)imidazo[1,5-a]pyridin-8-yl)-N-(4-fluorophenyl)-2-(trifluoromethyl)benzamide] displayed an EC50 of 274 nM.
With `Cc1ncc(-c2cccn3c(-c4ccccc4C(F)(F)F)ncc23)cc1C(=O)Nc1ccc(F)cc1` [Example 16, N-(4-fluorophenyl)-2-methyl-5-(3-(2-(trifluoromethyl)phenyl)imidazo[1,5-a]pyridin-8-yl)nicotinamide] the figure was 239 nM.
Next, `O=C(Nc1ccc(F)cc1)c1cc(-c2cccn3c(-c4cccnn4)ncc23)ccc1C(F)(F)F` [Example 17, N-(4-fluorophenyl)-5-(3-(pyridazin-3-yl)imidazo[1,5-a]pyridin-8-yl)-2-(trifluoromethyl)benzamide]: 237 nM; `Cc1ncc(-c2cccn3c(-c4cccc(F)c4C(F)(F)F)ncc23)cc1C(=O)Nc1ccc(F)cc1` [Example 18, 5-(3-(3-fluoro-2-(trifluoromethyl)phenyl)imidazo[1,5-a]pyridin-8-yl)-N-(4-fluorophenyl)-2-methylnicotinamide]: 211 nM.
With `Cc1ncc(-c2cccn3c(-c4ncccc4F)ncc23)cc1C(=O)Nc1ccc(F)cc1` [Example 19, N-(4-fluorophenyl)-5-(3-(3-fluoropyridin-2-yl)imidazo[1,5-a]pyridin-8-yl)-2-methylnicotinamide], the midpoint of the response, the EC50, lay at 199 nM.
Turning to `Cc1ccc(-c2cccn3c(-c4cccc(F)c4F)nnc23)cc1C(=O)Nc1ccc(F)cc1` [Example 20, 5-(3-(2,3-difluorophenyl)-[1,2,4]triazolo[4,3-a]pyridin-8-yl)-N-(4-fluorophenyl)-2-methylbenzamide], a half-maximal response (EC50) required 192 nM.
Consider `O=C(Nc1ccc(F)cc1)c1cc(-c2cccn3c(-c4ccnc5ccccc45)ncc23)ccc1C(F)(F)F` [Example 21, N-(4-fluorophenyl)-5-(3-(quinolin-4-yl)imidazo[1,5-a]pyridin-8-yl)-2-(trifluoromethyl)benzamide], for which the EC50 was determined as 183 nM.
`Cc1cccc(-c2ncc3c(-c4cnc(C)c(C(=O)Nc5ccc(F)cc5)c4)cccn23)c1` [Example 22, N-(4-fluorophenyl)-2-methyl-5-(3-(m-tolyl)imidazo[1,5-a]pyridin-8-yl)nicotinamide] showed an EC50 of 135 nM.
In turn, `Cc1ncc(-c2cccn3c(-c4cc(F)ccn4)ncc23)cc1C(=O)Nc1ccc(F)cc1` [Example 23, N-(4-fluorophenyl)-5-(3-(4-fluoropyridin-2-yl)imidazo[1,5-a]pyridin-8-yl)-2-methylnicotinamide] showed an EC50 of 112 nM.
Compound `Cc1ncc(-c2cccn3c(-c4c(F)cccc4F)ncc23)cc1C(=O)Nc1ccc(F)cc1` [Example 24, 5-(3-(2,6-difluorophenyl)imidazo[1,5-a]pyridin-8-yl)-N-(4-fluorophenyl)-2-methylnicotinamide] yielded an EC50 of 104 nM.
In turn, `Cc1ncc(-c2cccn3c(-c4ncccn4)ncc23)cc1C(=O)Nc1ccc(F)cc1` [Example 25, N-(4-fluorophenyl)-2-methyl-5-(3-(pyrimidin-2-yl)imidazo[1,5-a]pyridin-8-yl)nicotinamide] gave a concentration for a half-maximal effect (EC50) of 69 nM.
With `O=C(Nc1ccc(F)cc1)c1cc(-c2cccn3c(-c4ccncn4)ncc23)ccc1C(F)(F)F` [Example 26, N-(4-fluorophenyl)-5-(3-(pyrimidin-4-yl)imidazo[1,5-a]pyridin-8-yl)-2-(trifluoromethyl)benzamide] the figure was 66.4 nM; with `Cc1ncc(-c2cccn3c(-c4cc(F)cc(F)c4)ncc23)cc1C(=O)Nc1ccc(F)cc1` [Example 27, 5-(3-(3,5-difluorophenyl)imidazo[1,5-a]pyridin-8-yl)-N-(4-fluorophenyl)-2-methylnicotinamide], 61.7 nM; with `O=C(Nc1ccc(F)cc1)c1cc(-c2cccn3c(-c4cccc(F)c4F)ncc23)ncc1C(F)(F)F` [Example 28, 2-(3-(2,3-difluorophenyl)imidazo[1,5-a]pyridin-8-yl)-N-(4-fluorophenyl)-5-(trifluoromethyl)isonicotinamide], 57.9 nM.
Next, `Cc1ccccc1-c1ncc2c(-c3cnc(C)c(C(=O)Nc4ccc(F)cc4)c3)cccn12` [Example 29, N-(4-fluorophenyl)-2-methyl-5-(3-(o-tolyl)imidazo[1,5-a]pyridin-8-yl)nicotinamide]: 44.7 nM.
Regarding `Cc1ncc(-c2cccn3c(-c4cc(F)ccc4F)ncc23)cc1C(=O)Nc1ccc(F)cc1` [Example 30], the EC50 was determined as 39 nM.
